Test results from patent publication US10575526B2 (priority 2004, dated 2020).

Columns and labels:
[1] = Glyphosate residue analysis in RR soybean; format: in vivo; settings: 3 × 0.75 lb, V3/R1/PH
Source text: (§1) The selection of application rates that are effective for a specific plant pathogen is within the skill of the ordinary agricultural scientist. […] Useful application rates for the glyphosate compositions employed can depend upon all of the above conditions.

[2] = Glyphosate residue analysis in RR corn (GA21); format: in vivo; settings: 2 × 0.75 lb
Source text: as §1

[3] = Glyphosate residue analysis in RR canola; format: in vivo; settings: 0.8 lb, seed
Source text: as §1

[4] = Glyphosate residue analysis in RR rice; format: in vivo
Source text: as §1

[5] = Glyphosate residue analysis in RR wheat; format: in vivo
Source text: as §1

[6] = Glyphosate residue analysis in RR sugarbeet; format: in vivo
Source text: as §1

[7] = Glyphosate residue analysis in RR potato; format: in vivo; settings: tubers
Source text: as §1

[8] = system: Septoria; experiment: In vitro fungal cell growth on media containing glyphosate; format: cell-based; settings: crop of interest Wheat
[9] = system: Pseudocercosporella; experiment: as above; format: cell-based; settings: crop of interest Wheat
[10] = system: Botrytis; experiment: as above; format: cell-based; settings: crop of interest Veg/strawberry
[11] = system: Phytophthora; experiment: as above; format: cell-based; settings: crop of interest Potato/soy
[12] = system: Rhizoctonia; experiment: as above; format: cell-based; settings: crop of interest Wheat/potato
[13] = system: Fusarium; experiment: as above; format: cell-based; settings: crop of interest Wheat/potato
[14] = system: Gaeumannomyces; experiment: as above; format: cell-based; settings: crop of interest Wheat
[15] = system: Puccinia; experiment: as above; format: cell-based; settings: crop of interest Wheat
[16] = system: Pyricularia; format: cell-based; settings: growth media, crop of interest Rice
[17] = system: Puccinia spores; experiment: Tissue glyphosate concentration and disease prevention in glyphosate tolerant wheat; format: in vivo
Method: Four different regimens are employed. […] The inoculated plants are then incubated for 24 hours at 100% relative humidity for germination of the spores. […] Disease conditions are evaluated macroscopically for pustule development and lesion development.

[18] = system: Puccinia spores; experiment: Translocation of glyphosate to shielded wheat leaf for leaf rust prevention; format: in vivo
Source text: In the data shown in FIG. 1, the top fully expanded wheat leaf was shielded from Roundup® spray (0-1×, 1× at 0.75 lb ae/a) followed by inoculation of wheat rust spores to the shielded leaf at 1 day after treatment (DAT).
14C-glyphosate is sprayed over-the-top to wheat plants using field application conditions and use rates. The top fully-expanded leaf (one leaf) is shielded from the spray (the untreated leaf).

[19] = system: rust spores; experiment: Glyphosate as post-infection treatment of glyphosate tolerant wheat; format: in vivo; settings: evaluated 11 DAI
Method: Depending on the treatment to be used, the spores are then allowed to germinate. […] Disease incidence is evaluated 11 DAI.

[20] = system: Asian soybean rust; experiment: Greenhouse study of glyphosate and Opera fungicide on Asian soybean rust; format: in vivo, Phakopsora pachyrhizi
[21] = system: Common rust or Southern rust spores (Puccinia sorghi, Puccinia polysora); experiment: Field tests of glyphosate on rust diseases of Roundup Ready corn nk603; format: in vivo; settings: 1 to 9 scale
[22] = system: Verticillium wilt (Verticillium dahliae); experiment: Verticillium wilt control in Roundup Ready cotton; format: in vivo; settings: three genetic backgrounds, 22 ounces of WeatherMax Roundup at two and five true leaf stage, observed about three and four months after planting, versus adjacent untreated plot
Source text: The cotton seeds were planted and the emerged plants were sprayed with 22 ounces of WeatherMax Roundup® at the two and five true leaf stage. […] The treated plants continued to grow compared to the untreated plants that had shut down. […] Cotton plants suffering from other wilt diseases of cotton, especially Fusarium wilt disease, are expected to benefit from treatment with glyphosate.

[23] = target: corn EPSPS; experiment: Kinetic studies of EPSPS inhibition by glyphosate; format: biochemical; settings: equivalent of 0.5 μM
Source text: Structural studies of EPSPS based on X-ray crystallography have identified key amino acids involved in catalysis.

[24] = target: corn EPSPS; settings: read-out: Ki for glyphosate; cited from earlier work

## O=C(O)CNCP(=O)(O)O [glyphosate, N-phosphonomethylglycine]
[1]; forage
  Gly (ppm): 7.60 ppm
[1]; hay
  Gly (ppm): 1.30 ppm
[1]; seed
  Gly (ppm): 0.80 ppm
[2]; V4/V8, forage
  Gly (ppm): 0.73 ppm
[2]; V4/V8, grain
  Gly (ppm): 0.07 ppm
[2]; V4/V8, stover
  Gly (ppm): 1.30 ppm
[3]
  Gly (ppm): 0.02 ppm
[4]; 1.5 lb 5 lf, grain
  Gly (ppm): 0.05 ppm
[4]; 1.5 lb 5 lf, straw
  Gly (ppm): 0.05 ppm
[4]; 2 × 1.12 lb, 5 lf/pan ini, grain
  Gly (ppm): 3.00 ppm
[4]; 2 × 1.12 lb, 5 lf/pan ini, straw
  Gly (ppm): 3.10 ppm
[4]; 3 × 1.12 lb, 5 lf/pan ini/PH, grain
  Gly (ppm): 14.80 ppm
[4]; 3 × 1.12 lb, 5 lf/pan ini/PH, straw
  Gly (ppm): 6.90 ppm
[5]; 0.75 lb, 4 lf, forage
  Gly (ppm): 2.30 ppm
[5]; 0.75 lb, 4 lf, grain
  Gly (ppm): 0.50 ppm
[5]; 0.75 lb, 4 lf, hay
  Gly (ppm): 1.20 ppm
[5]; 0.75 lb, 4 lf, straw
  Gly (ppm): 0.50 ppm
[5]; 2 × 0.75 lb, 4 lf/Preboot, forage
  Gly (ppm): 2.60 ppm
[5]; 2 × 0.75 lb, 4 lf/Preboot, grain
  Gly (ppm): 7.50 ppm
[5]; 2 × 0.75 lb, 4 lf/Preboot, hay
  Gly (ppm): 13.00 ppm
[5]; 2 × 0.75 lb, 4 lf/Preboot, straw
  Gly (ppm): 5.30 ppm
[6]; 3 × 0.75, 2 lf/12 lf/12 lf + 30 d, beet
  Gly (ppm): 6.60 ppm
[6]; 3 × 0.75, 2 lf/12 lf/12 lf + 30 d, tops
  Gly (ppm): 4.30 ppm
[6]; 3 × 0.75 lb, 2 lf/6 lf/12 lf, beet
  Gly (ppm): 0.50 ppm
[6]; 3 × 0.75 lb, 2 lf/6 lf/12 lf, tops
  Gly (ppm): 0.40 ppm
[7]; 2 × 1.5 lb, 2 lf/row closure
  Gly (ppm): 4.10 ppm
[7]; 3 × 1.5 lb, 2 lf/row clo/PH
  Gly (ppm): 8.60 ppm
[8]
  In vitro EC90, ppm: <100 ppm
[9]
  In vitro EC90, ppm: <100 ppm
[10]
  In vitro EC90, ppm: <100 ppm
[11]
  In vitro EC90, ppm: 1000 ppm
[12]
  In vitro EC90, ppm: 1000 ppm
[13]
  In vitro EC90, ppm: 1000 ppm
[14]
  In vitro EC90, ppm: 1000 ppm
[15]
  In vitro EC90, ppm: 5000 ppm
[16]
  In vitro EC90, ppm: 5000 ppm
[17]; 12 days after inoculation, wheat treated with 1× spray, inoculated 1 day or 14 days after treatment, controls about 25% to about 30%
  pustule development: less than 1%
[17]; glyphosate tolerant wheat leaf
  tissue concentration of glyphosate at which pustule development is prevented: about 10 ppm
[18]; shielded (untreated) wheat leaf, spray application of ½× of Roundup, inoculated 1DAT
  tissue glyphosate at which complete disease prevention was attained: 1.3 ppm
[18]; shielded wheat leaf, 11 days after inoculation, 0-1× spray
  disease incidence versus spray dose: decrease in disease incidence with an increase in spray dose
[19]; 1× glyphosate at 4DAI, lesions already present at treatment
  development of pustules: no development of pustules
[19]; wheat 3-leaf stage, 1× glyphosate after inoculation, untreated/surfactant between 10% and about 25%
  infection level: either no infection or no progression to an existing infection
[20]; RR8000, Trt 2 glyp 1X every two weeks from V3, 14 d-1 spray
  percent disease of Asian soybean rust: 23.3%
[20]; RR8000, Trt 2 glyp 1X every two weeks from V3, 28 d-2 sprays
  percent disease of Asian soybean rust: 41.7%
[20]; RR8000, Trt 2 glyp 1X every two weeks from V3, 42 d-3 sprays
  percent disease of Asian soybean rust: 48.3%
[20]; RR8000, Trt 2 glyp 1X every two weeks from V3, 56 d-4 sprays
  percent disease of Asian soybean rust: 88.3%
[20]; RR8000, Trt 3 glyp 2X every two weeks from V3, 14 d-1 spray
  percent disease of Asian soybean rust: 10.0%
[20]; RR8000, Trt 3 glyp 2X every two weeks from V3, 28 d-2 sprays
  percent disease of Asian soybean rust: 10.0%
[20]; RR8000, Trt 3 glyp 2X every two weeks from V3, 42 d-3 sprays
  percent disease of Asian soybean rust: 10.0%
[20]; RR8000, Trt 3 glyp 2X every two weeks from V3, 56 d-4 sprays
  percent disease of Asian soybean rust: 30.0%
[20]; RR8045, Trt 2 glyp 1X every two weeks from V3, 14 d-1 spray
  percent disease of Asian soybean rust: 50.0%
[20]; RR8045, Trt 2 glyp 1X every two weeks from V3, 28 d-2 sprays
  percent disease of Asian soybean rust: 56.7%
[20]; RR8045, Trt 2 glyp 1X every two weeks from V3, 42 d-3 sprays
  percent disease of Asian soybean rust: 71.7%
[20]; RR8045, Trt 2 glyp 1X every two weeks from V3, 56 d-4 sprays
  percent disease of Asian soybean rust: 86.7%
[20]; RR8045, Trt 3 glyp 2X every two weeks from V3, 14 d-1 spray
  percent disease of Asian soybean rust: 3.3%
[20]; RR8045, Trt 3 glyp 2X every two weeks from V3, 28 d-2 sprays
  percent disease of Asian soybean rust: 10.0%
[20]; RR8045, Trt 3 glyp 2X every two weeks from V3, 42 d-3 sprays
  percent disease of Asian soybean rust: 13.3%
[20]; RR8045, Trt 3 glyp 2X every two weeks from V3, 56 d-4 sprays
  percent disease of Asian soybean rust: 73.3%
[21]; hybrid corn, treatment #1 (pre-inoculation), 2× rate (1.5 lb./A), 1=resistant, 9=susceptible, control 4.1
  average disease rating: 3.6
[21]; hybrid corn, treatment #1 (pre-inoculation), 3× rate (2.25 lb./A), control 4.1
  disease rating: 3.0
[21]; hybrid corn, treatment #2 (14 days post inoculation), control 4.1
  disease rating: 4.1
[21]; hybrid corn, treatment #3 (28 days post inoculation), control 4.1
  disease rating: 3.9
[21]; inbred corn, post inoculation treatments, second value
  disease rating: 4.9
[21]; inbred corn, post inoculation treatments
  disease rating: 4.4
[21]; inbred corn, treatment #1 (pre-inoculation), 2× rate, controls 5.0 and 4.9
  average disease rating: 4.0
[21]; inbred corn, treatment #1 (pre-inoculation), 3× rate, controls 5.0 and 4.9
  average disease rating: 3.2
[22]
  wilt symptoms: reduced symptoms
[23]
  Ki expressed as glyphosate in plant tissues: approximately 0.15 ppm
[24]
  Ki: 500 nM
